Columns and labels:
[1] = tested on: IMPDH (PBMC proliferation); experiment: GMP test: PBMC proliferation with or without guanosine source (IMPDH inhibition); format: cell-based, human; conditions: for PBMC proliferation upon GMP addition (reversal of inhibition): with 50 µM GMP
Method: ESI Figure 4. Antiproliferative activity of MPA, MMF, and various esters of MPA in the presence of guanosine source — role of IMPDH inhibiton. VPD450-labeled human PBMCs, in the presence of different concentrations (50; 25; 10; 1, and 0.1 μM) of MPA, MMF, and esters, and stimulated (magnetic beads coated with anti-CD3 and anti-CD28 antibodies) were cultured with or without the addition of 50 μM GMP for 72 h. Cell proliferation was analyzed […]
(1 picture or pasted object on this page, not shown here) […]
inhibited cell viability by more than 50%. Each experiment was conducted in triplicate, and the final […]
VPD450 dye-based in vitro cell proliferation test
PBMCs and T-Jurkat cells were washed twice with warm PBS (37°C), re-suspended in fresh PBS at a final concentration of 10-30∙10^6 cells/ml, and labelled with 1 µl of VPD450 (BD Biosciences) at 37°C for 15 minutes, with vortexing every 5 minutes to ensure uniform staining. Subsequently, cells were washed with PBS, then with the complete medium (X-VIVO20 for PBMCs and RPMI-1640 for T-Jurkat cells), next re-suspended in fresh complete medium and seeded into 96-well plates at a concentration of 1∙10^6 cells per well. PBMCs were additionally stimulated with magnetic beads coated with anti-CD3 and anti-CD28 antibodies (Invitrogen) at a 2:1 cell-to-bead ratio. To the experimental wells, 100 µl of the MPA derivatives were added to achieve final concentrations of 50, 25, 10, 5, 1, 0.1, and 0.01 µM. In parallel, control wells containing stained but unstimulated cells and stained, stimulated cells were prepared at the same concentration. Cell proliferation was analyzed using an LSRFortessa flow cytometer (BD Biosciences) and Kaluza C Flow Cytometry Analysis Software (Beckman Coulter).
The data were expressed as EC50 values for compounds that inhibited more than 50% of cell […]
Enzyme inhibition in the presence of guanosine source (GMP test)
PBMCs were suspended in a 15 mL centrifuge tube at a concentration of 10-30 × 10⁶ cells in 1 mL of PBS, then, 2 μL of 1 mM VPD 450 dye solution was added, incubated for 15 min at 37°C, washed with a 9-fold volume of warm PBS and centrifuged at 400 x g for 5 min. Then, the cells were suspended in 10 mL of X-VIVO medium with 10% FBS and centrifuged again at 400 x g for 5 min. After suspending the cells in the complete medium, the staining level was checked using flow cytometry. The cells thus obtained were stimulated with anti-CD3/anti-CD28 antibodies as described previously (see VPD450 dye-based in vitro cell proliferation test). To perform the GMP test, a proper amount of GMP was added to each well to reach its final concentration of 50 μM, and then incubated for 72 hours. Proliferative activity was tested in the presence of various concentrations of compounds (50; 25; 10; 1 and 0.1 μM; MPA and selected amide derivatives) or without their addition. Cell proliferation was assessed using […]
Statistical analysis was conducted using GraphPad Prism 9 (GraphPad Software Inc).
Differences between MMF, MPA and its new derivatives were assessed using a two-tailed unpaired Student’s t-test, with statistical significance defined as p < 0.05. EC50 and IC50 values were determined by fitting data to a four-parameter non-linear regression model in GraphPad Prism 9. Statistical significance was evaluated using the t-test.

[2] = tested on: AsPC-1 cells (human pancreatic cancer cells); experiment: MTT cytotoxicity assay on AsPC-1 cell line; format: cell-based; conditions: ASPC1, 72 h treatment, n = 3, mean ± SD
Method: Table 2 presents the concentration of the tested compounds, namely: P4, P7, MP9, MPA, MMF, and gemcitabine (GEM; a standard), which inhibited the proliferation of AsPC-1 cells (human pancreatic cancer cells) by 50% (expressed as IC50 values) compared to the control. Cells were treated with compounds for 72 h and then a colorimetric MTT assay was performed. A graphical representation of these values can be seen in ESI Fig. S1.
Biological evaluation — AsPC-1 cell line
AsPC-1 pancreatic cancer cells (purchased from the American Type Culture Collection, ATCC, Manassas, VA, USA) were maintained in RPMI 1640 medium (Sigma-Aldrich, St Louis, MO, USA), supplemented with heat-inactivated 10% fetal bovine serum (FBS; Biowest, Riverside, MO, USA), 100 µg/mL streptomycin, and 100 units/mL penicillin. Cells were incubated in a humidified atmosphere of 5% CO2 at 37°C. All experiments were performed on cells in a logarithmic growth phase.
To investigate the effect of the tested compounds on cell viability, a colorimetric analysis was performed using MTT (3-(4,5-Dimethyl-2-thiazolyl)-2,5-diphenyl-2H-tetrazolium bromide, Sigma-Aldrich, St Louis, MO, USA) based on the reduction of this yellow salt in metabolically active cells to purple formazan crystals. Cells were seeded onto 96-well plates at 2∙10^3 cells/well and after 24 h incubation for cell attachment, cells were treated with various concentrations of tested compounds and gemcitabine (positive control) up to 50 µM. After 72 hours of incubation, 20 µL MTT at a concentration of 4 mg/mL was added to each well for 3-4 hours. The culture medium was then aspirated and formazan crystals were dissolved in DMSO. The absorbance of the solutions was measured at 540 nm using an iMark Microplate Absorbance Reader (Bio-Rad, Hercules, CA, USA). The drug concentrations required to inhibit cell growth by 50% (IC50) compared to untreated control cells were determined from curves plotting survival as a function of dose. Results were obtained from at least three independent […]
Statistical analysis of MTT cytotoxicity assay results was performed using GraphPad Prism 5.0 by two-tailed unpaired Student’s t-test. Differences p < 0.05 between MPA and its derivatives and gemcitabine were considered statistically significant according to the following criteria: * p < 0.05, ** p <

COc1c(C)c2c(c(O)c1C/C=C(\C)CCC(=O)Oc1ccc3c(c1)OCO3)C(=O)OC2 [P1]
PBMC proliferation upon GMP addition (reversal of inhibition) ([1]; 50 µM compound, 72 h): reversed | inhibition at 50 µM ([1]; Homo sapiens, PBMC, 50 µM compound, without GMP, 72 h): ~80%

COC(=O)/C=C/c1ccccc1OC(=O)CC/C(C)=C/Cc1c(O)c2c(c(C)c1OC)COC2=O [P4]
IC50 [2]: 2.87 µM | PBMC proliferation upon GMP addition (reversal of inhibition) ([1]; 50 µM compound, 72 h): comparable pattern

COc1c(C)c2c(c(O)c1C/C=C(\C)CCC(=O)OCCN1CCOCC1)C(=O)OC2 [MMF, mycophenolate mofetil, reference compound]
IC50 [2]: 2.03 ± 0.042 µM | Inhibition of PBMC proliferation ([1]; 50 µM compound, without GMP, 72 h): near-complete inhibition

C/C=C/c1ccc(OC(=O)CC/C(C)=C/Cc2c(O)c3c(c(C)c2OC)COC3=O)c(OC)c1 [MP9]
IC50 [2]: 3.81 µM | PBMC proliferation upon GMP addition (reversal of inhibition) ([1]; 50 µM compound, 72 h): comparable pattern

COc1c(C)c2c(c(O)c1C/C=C(\C)CCC(=O)O)C(=O)OC2 [MPA, Mycophenolic acid]
IC50 [2]: 1.74 ± 0.259 µM | Inhibition of PBMC proliferation ([1]; 50 µM): near-complete inhibition

COc1c(C)c2c(c(O)c1C/C=C(\C)CCC(=O)Oc1ccc(CCC(C)=O)cc1)C(=O)OC2 [P7]
IC50 [2]: 2.45 µM | PBMC proliferation upon GMP addition (reversal of inhibition) ([1]; 50 µM compound, 72 h): comparable pattern
